# Experimental data from ChEMBL document CHEMBL5257049, “Interconvertible Pyridone Alkaloids from the Marine-Derived Fungus Penicillium oxalicum QDU1” (J Nat Prod, 2023).
# pIC50: −log10 of the molar value.
# Test system: RAW264.7
# Experiment: Antiinflammatory activity in mouse RAW264.7 cells assessed as inhibition of LPS-stimulated NO production preincubated for 3 hrs followed by LPS stimulation and measured after 24 hrs by Griess reagent based assay
# Assay type: functional, cell-based
row,SMILES,pIC50
1,CC[C@H](C)/C=C(C)/C=C/[C@H]1Oc2c(-c3ccc(O)cc3)c[nH]c(=O)c2[C@H](O)[C@@H]1C,< 4.70
2,CC(/C=C/C=C(C)/C(O)=C1/C(=O)N[C@@H]([C@@H](O)c2ccc(O)cc2)C1=O)=C\[C@H](C)[C@@H](C)O,< 4.70
3,CC[C@H](C)/C=C(C)/C=C/[C@H]1Oc2c(-c3ccc(O)cc3)c[nH]c(=O)c2[C@H](OC)[C@@H]1C,< 4.70
4,CC(/C=C/C=C(C)/C(O)=C1/C(=O)N[C@H]([C@@H](O)c2ccc(O)cc2)C1=O)=C\[C@H](C)[C@@H](C)O,< 4.70
5,CC(/C=C/[C@@H]1Oc2c(-c3ccc(O)cc3)c[nH]c(=O)c2[C@@H](O)[C@H]1C)=C\[C@H](C)[C@@H](C)O,< 4.70
6,CC(/C=C/[C@@H]1Oc2c(-c3ccc(O)cc3)c[nH]c(=O)c2[C@H](O)[C@H]1C)=C\[C@H](C)[C@@H](C)O,< 4.70
7,CC(/C=C/[C@@H]1Oc2c(-c3ccc(O)cc3)c[nH]c(=O)c2[C@@H](O)[C@H]1C)=C\[C@H](C)[C@H](C)O,< 4.70

# The next molecules have a higher pIC50 than those just listed; values first:
row,pIC50,SMILES
1,5.04,CC[C@H](C)/C=C(C)/C=C/[C@H]1Oc2c(-c3ccc(O)cc3)c[nH]c(=O)c2[C@H](OC)[C@H]1C
2,4.77,CC[C@H](C)/C=C(C)/C=C/[C@H]1Oc2c(-c3ccc(O)cc3)c[nH]c(=O)c2[C@H](O)[C@H]1C
3,6.21,COc1ccc2c(c1)c(CC(=O)O)c(C)n2C(=O)c1ccc(Cl)cc1 [INDOMETHACIN]
4,4.85,CC(/C=C/C=C(C)/C(O)=C1/C(=O)N/C(=C\c2ccc(O)cc2)C1=O)=C\[C@H](C)[C@@H](C)O
5,4.72,CC[C@H](C)/C=C(C)/C=C/[C@H]1Oc2c(-c3ccc(O)cc3)c[nH]c(=O)c2[C@@H](O)[C@@H]1C
6,4.82,CO[C@@H]1c2c(c(-c3ccc(O)cc3)c[nH]c2=O)O[C@@H](/C=C/C(C)=C/[C@H](C)[C@@H](C)O)[C@@H]1C
7,4.77,CO[C@@H]1c2c(c(-c3ccc(O)cc3)c[nH]c2=O)O[C@H](/C=C/C(C)=C/[C@H](C)[C@@H](C)O)[C@@H]1C
8,4.74,CO[C@@H]1c2c(c(-c3ccc(O)cc3)c[nH]c2=O)O[C@@H](/C=C/C(C)=C/[C@H](C)[C@H](C)O)[C@@H]1C
